# Tests used:
# HL-60(TB) = assay: Growth inhibition of human HL-60(TB) cells incubated for 48 hrs by sulforhodamine B assay; assay type: functional, cell-based; settings: HL-60, 48 h
# NCI-H23 = assay: Growth inhibition of human NCI-H23 cells incubated for 48 hrs by sulforhodamine B assay; assay type: functional, cell-based; settings: NCI-H23, 48 h
# SF-539 = assay: Growth inhibition of human SF539 cells incubated for 48 hrs by sulforhodamine B assay; assay type: functional, cell-based; settings: SF-539, 48 h
# UACC-257 = assay: Growth inhibition of human UACC257 cells incubated for 48 hrs by sulforhodamine B assay; assay type: functional, cell-based; settings: UACC-257, 48 h
# OVCAR-8 = assay: Growth inhibition of human OVCAR8 cells incubated for 48 hrs by sulforhodamine B assay; assay type: functional, cell-based; settings: OVCAR-8, 48 h
# NCI/ADR-RES = assay: Growth inhibition of human NCI/ADR-RES cells incubated for 48 hrs by sulforhodamine B assay; assay type: functional, cell-based
# UO-31 = assay: Growth inhibition of human UO31 cells incubated for 48 hrs by sulforhodamine B assay; assay type: functional, cell-based; settings: UO-31, 48 h
# DU-145 = assay: Growth inhibition of human DU145 cells incubated for 48 hrs by sulforhodamine B assay; assay type: functional, cell-based; settings: DU-145, 48 h
# BT-549 [1] = assay: Growth inhibition of human BT549 cells incubated for 48 hrs by sulforhodamine B assay; assay type: functional, cell-based; settings: BT-549, 48 h
# MOLT-4 = assay: Growth inhibition of human MOLT4 cells assessed as cell growth at 0.01 uM incubated for 48 hrs by sulforhodamine B assay relative to control; assay type: functional; settings: MOLT-4, 48 h, read-out: Activity
# NCI-H522 = assay: Growth inhibition of human NCI-H522 cells assessed as cell growth at 0.01 uM incubated for 48 hrs by sulforhodamine B assay relative to control; assay type: functional; settings: NCI-H522, 48 h, read-out: Activity
# SK-MEL-28 [2] = assay: Growth inhibition of human SK-MEL-28 cells assessed as cell growth at 0.01 uM incubated for 48 hrs by sulforhodamine B assay relative to control; assay type: functional; settings: SK-MEL-28, 48 h, read-out: Activity
# OVCAR-3 [3] = assay: Growth inhibition of human OVCAR3 cells assessed as cell growth at 0.01 uM incubated for 48 hrs by sulforhodamine B assay relative to control; assay type: functional; settings: OVCAR-3, 48 h, read-out: Activity
# ACHN = assay: Growth inhibition of human ACHN cells assessed as cell growth at 0.01 uM incubated for 48 hrs by sulforhodamine B assay relative to control; assay type: functional; settings: read-out: Activity
# CCRF-CEM [4] = assay: Growth inhibition of human CCRF-CEM cells assessed as cell growth at 0.1 uM incubated for 48 hrs by sulforhodamine B assay relative to control; assay type: functional; settings: read-out: Activity
# NCI-H322M = assay: Growth inhibition of human NCI-H322M cells assessed as cell growth at 0.1 uM incubated for 48 hrs by sulforhodamine B assay relative to control; assay type: functional; settings: read-out: Activity
# KM12 = assay: Growth inhibition of human KM12 cells assessed as cell growth at 0.1 uM incubated for 48 hrs by sulforhodamine B assay relative to control; assay type: functional; settings: KM12, 48 h, read-out: Activity
# SK-MEL-28 [5] = assay: Growth inhibition of human SK-MEL-28 cells assessed as cell growth at 0.1 uM incubated for 48 hrs by sulforhodamine B assay relative to control; assay type: functional; settings: SK-MEL-28, 48 h, read-out: Activity
# T47D = assay: Growth inhibition of human T47D cells assessed as cell growth at 0.1 uM incubated for 48 hrs by sulforhodamine B assay relative to control; assay type: functional; settings: read-out: Activity
# CCRF-CEM [6] = assay: Growth inhibition of human CCRF-CEM cells assessed as cell growth at 1 uM incubated for 48 hrs by sulforhodamine B assay relative to control; assay type: functional; settings: read-out: Activity
# RPMI-8226 = assay: Growth inhibition of human RPMI8226 cells assessed as cell growth at 1 uM incubated for 48 hrs by sulforhodamine B assay relative to control; assay type: functional; settings: RPMI-8226, 48 h, read-out: Activity
# SK-MEL-2 = assay: Growth inhibition of human SK-MEL-2 cells assessed as cell growth at 1 uM incubated for 48 hrs by sulforhodamine B assay relative to control; assay type: functional; settings: SK-MEL-2, 48 h, read-out: Activity
# CAKI-1 = assay: Growth inhibition of human Caki1 cells assessed as cell growth at 1 uM incubated for 48 hrs by sulforhodamine B assay relative to control; assay type: functional; settings: CAKI-1, 48 h, read-out: Activity
# PC-3 = assay: Growth inhibition of human PC3 cells assessed as cell growth at 1 uM incubated for 48 hrs by sulforhodamine B assay relative to control; assay type: functional; settings: PC-3, 48 h, read-out: Activity
# MDA-MB-231 = assay: Growth inhibition of human MDA-MB-231 cells assessed as cell growth at 1 uM incubated for 48 hrs by sulforhodamine B assay relative to control; assay type: functional; settings: MDA-MB-231, 48 h, read-out: Activity
# Malme-3M = assay: Growth inhibition of human MALME-3M cells assessed as cell growth at 100 uM incubated for 48 hrs by sulforhodamine B assay relative to control; assay type: functional; settings: read-out: Activity
# OVCAR-3 [7] = assay: Growth inhibition of human OVCAR3 cells assessed as cell growth at 100 uM incubated for 48 hrs by sulforhodamine B assay relative to control; assay type: functional; settings: OVCAR-3, 48 h, read-out: Activity
# BT-549 [8] = assay: Growth inhibition of human BT549 cells assessed as cell growth at 100 uM incubated for 48 hrs by sulforhodamine B assay relative to control; assay type: functional; settings: BT-549, 48 h, read-out: Activity
# [9] = read-out: LC50 (the source's name)
# [10] = read-out: pLC50 (the source's name) (converted)
structure (smiles),measurement,setting,value
COc1cc(Cl)cc(-c2nn(-c3cccc(NC(=O)c4cccc(C(F)(F)F)c4)c3)cc2-c2ccncc2)c1,GI50,HL-60(TB); read-out: GI50,4.5 µM
same,LC50,HL-60(TB); read-out: LC50,> 100 µM
same,TGI,HL-60(TB); read-out: TGI,> 100 µM
same,GI50,HL-60(TB); read-out: pGI50 (converted),45.7 µM
same,LC50,HL-60(TB); read-out: pLC50 (converted),> 100 µM
same,TGI,HL-60(TB); read-out: pTGI (converted),> 100 µM
same,GI50,NCI-H23; read-out: GI50,5.74 µM
same,LC50,NCI-H23; read-out: LC50,> 100 µM
same,TGI,NCI-H23; read-out: TGI,> 100 µM
same,GI50,NCI-H23; read-out: pGI50 (converted),6.76 µM
same,LC50,NCI-H23; read-out: pLC50 (converted),> 100 µM
same,TGI,NCI-H23; read-out: pTGI (converted),> 100 µM
same,GI50,SF-539; read-out: GI50,> 100 µM
same,CC50,SF-539; [9],> 100 µM
same,TGI,SF-539; read-out: TGI,> 100 µM
same,GI50,SF-539; read-out: pGI50 (converted),> 100 µM
same,CC50,SF-539; [10],> 100 µM
same,TGI,SF-539; read-out: pTGI (converted),> 100 µM
same,GI50,UACC-257; read-out: GI50,> 100 µM
same,CC50,UACC-257; [9],> 100 µM
same,TGI,UACC-257; read-out: TGI,> 100 µM
same,GI50,UACC-257; read-out: pGI50 (converted),> 100 µM
same,CC50,UACC-257; [10],> 100 µM
same,TGI,UACC-257; read-out: pTGI (converted),> 100 µM
same,GI50,OVCAR-8; read-out: GI50,5.58 µM
same,CC50,OVCAR-8; [9],> 100 µM
same,TGI,OVCAR-8; read-out: TGI,> 100 µM
same,GI50,OVCAR-8; read-out: pGI50 (converted),6.92 µM
same,CC50,OVCAR-8; [10],> 100 µM
same,TGI,OVCAR-8; read-out: pTGI (converted),> 100 µM
same,GI50,NCI/ADR-RES; read-out: GI50,5.38 µM
same,CC50,NCI/ADR-RES; [9],> 100 µM
same,TGI,NCI/ADR-RES; read-out: TGI,> 100 µM
same,GI50,NCI/ADR-RES; read-out: pGI50 (converted),5.37 µM
same,CC50,NCI/ADR-RES; [10],> 100 µM
same,TGI,NCI/ADR-RES; read-out: pTGI (converted),> 100 µM
same,IC50,UO-31,2710 nM
same,GI50,UO-31; read-out: GI50,2710 nM
same,CC50,UO-31; [9],> 100 µM
same,TGI,UO-31; read-out: TGI,> 100 µM
same,GI50,UO-31; read-out: pGI50 (converted),2690 nM
same,CC50,UO-31; [10],> 100 µM
same,TGI,UO-31; read-out: pTGI (converted),> 100 µM
same,GI50,DU-145; read-out: GI50,> 100 µM
same,CC50,DU-145; [9],> 100 µM
same,TGI,DU-145; read-out: TGI,> 100 µM
same,GI50,DU-145; read-out: pGI50 (converted),> 100 µM
same,CC50,DU-145; [10],> 100 µM
same,TGI,DU-145; read-out: pTGI (converted),> 100 µM
same,GI50,BT-549 [1]; read-out: GI50,> 100 µM
same,CC50,BT-549 [1]; [9],> 100 µM
same,TGI,BT-549 [1]; read-out: TGI,> 100 µM
same,GI50,BT-549 [1]; read-out: pGI50 (converted),> 100 µM
same,CC50,BT-549 [1]; [10],> 100 µM
same,TGI,BT-549 [1]; read-out: pTGI (converted),> 100 µM
same,growth at 0.01 µM,MOLT-4,91%
same,growth at 0.01 µM,NCI-H522,51%
same,growth at 0.01 µM,SK-MEL-28 [2],105%
same,growth at 0.01 µM,OVCAR-3 [3],105%
same,growth at 0.01 µM,ACHN,98%
same,growth at 0.1 µM,CCRF-CEM [4],92%
same,growth at 0.1 µM,NCI-H322M,95%
same,growth at 0.1 µM,KM12,111%
same,growth at 0.1 µM,SK-MEL-28 [5],97%
same,growth at 0.1 µM,T47D,101%
same,growth at 1 µM,CCRF-CEM [6],53%
same,growth at 1 µM,RPMI-8226,79%
same,growth at 1 µM,SK-MEL-2,56%
same,growth at 1 µM,CAKI-1,90%
same,growth at 1 µM,PC-3,73%
same,growth at 1 µM,MDA-MB-231,58%
same,growth at 100 µM,Malme-3M,55%
same,growth at 100 µM,OVCAR-3 [7],38%
same,growth at 100 µM,BT-549 [8],54%

# Reference: ChEMBL document CHEMBL4308841, “Synthesis, in vitro antiproliferative activity, and kinase inhibitory effects of pyrazole-containing diarylureas and diarylamides” (Eur J Med Chem, 2018)
